Experimental data published in patent publication US6479435B1, “Diaryl ethers and processes for their preparation and herbicidal and desiccant compositions containing them” (ISK Americas Incorporated, priority 1997, dated 2002).

How the values were obtained:
Format in all cases: in vivo
[1] = system: field corn (Zea mays L., var. Dekalb 535, CORN); experiment: Post-emerge greenhouse test, crop damage rating; settings: 14 days after application
How it was run: (§1)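 Plants at the 2-3 leaf stage, sown 8-21 days earlier, were track-sprayed post-emergence with compound in acetone plus 0.25% v/v non-ionic surfactant at 63-1000 g ai/ha (187 l/ha). Damage was rated at 14 days on a 0-100 scale (0 none, 100 all plants dead), for both crop injury and weed control.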

[2] = system: upland rice (Oryza sp., var.Tebonnet, RICE); experiment: Post-emerge greenhouse test, crop damage rating; settings: 14 days after application
How it was run: as §1

[3] = system: soybean (Glycine max L., var. Pella 86, SOY); experiment: Post-emerge greenhouse test, crop damage rating; settings: 14 days after application
How it was run: as §1

[4] = system: green foxtail (Setaria viridis, SETVI); experiment: Post-emerge greenhouse herbicide test, phytotoxicity rating; settings: 14 days after application
How it was run: as §1

[5] = system: Johnsongrass (Sorghum halepense, SORHA); experiment: as above; settings: 14 days after application
How it was run: as §1

[6] = system: large crabgrass (Digitaria sanguinalis, DIGSA); experiment: as above; settings: 14 days after application
How it was run: as §1

[7] = system: sicklepod (Cassia obtusifolia, CASOB); experiment: as above; settings: 14 days after application
How it was run: as §1

[8] = system: redroot pigweed (Amaranthus retroflexus, AMARE); experiment: as above; settings: 14 days after application
How it was run: as §1

[9] = system: barnyardgrass (Echinochloa crusgalli, ECHCG); experiment: as above; settings: 14 days after application
How it was run: as §1

[10] = system: lambsquarters (Chenopodium album, CHEAL); experiment: as above; settings: 14 days after application
How it was run: as §1

[11] = system: velvetleaf (Abutilon theophrasti, ABUTH); experiment: as above; settings: 14 days after application
How it was run: as §1

[12] = system: ivyleaf morningglory (Ipomoea hederacea, IPOHE); experiment: as above; settings: 14 days after application
How it was run: as §1

[13] = system: soybean (Glycine max L., var. Pella 86, SOY); experiment: Pre-emerge greenhouse test, crop damage rating; settings: 14 days after application, rating scale 0-100
How it was run: (§2)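 Seeds sown in sandy loam one day before track-sprayer application of acetone solutions at 125–1000 g ai/ha (187 l/ha), then surface-watered to incorporate and bottom-watered. Injury scored visually at 14 days on a 0–100 scale (0 no damage, 100 complete death).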

[14] = system: common ragweed (Ambrosia artemisiifolia L., AMBEL); experiment: Post-emerge greenhouse herbicide test, phytotoxicity rating; settings: 14 days after application
How it was run: as §1

[15] = system: common ragweed (Ambrosia artemisiifolia L., AMBEL); experiment: Pre-emerge greenhouse herbicide test, phytotoxicity rating; settings: 14 days after application, rating scale 0-100
How it was run: as §2

[16] = system: green foxtail (Setaria viridis, SETVI); experiment: as above; settings: 14 days after application, rating scale 0-100
How it was run: as §2

[17] = system: Johnsongrass (Sorghum halepense, SORHA); experiment: as above; settings: 14 days after application, rating scale 0-100
How it was run: as §2

[18] = system: large crabgrass (Digitaria sanguinalis, DIGSA); experiment: as above; settings: 14 days after application, rating scale 0-100
How it was run: as §2

[19] = system: sicklepod (Cassia obtusifolia, CASOB); experiment: as above; settings: 14 days after application, rating scale 0-100
How it was run: as §2

[20] = system: redroot pigweed (Amaranthus retroflexus, AMARE); experiment: as above; settings: 14 days after application, rating scale 0-100
How it was run: as §2

[21] = system: barnyardgrass (Echinochloa crusgalli, ECHCG); experiment: as above; settings: 14 days after application, rating scale 0-100
How it was run: as §2

[22] = system: lambsquarters (Chenopodium album, CHEAL); experiment: as above; settings: 14 days after application, rating scale 0-100
How it was run: as §2

[23] = system: velvetleaf (Abutilon theophrasti, ABUTH); experiment: as above; settings: 14 days after application, rating scale 0-100
How it was run: as §2

[24] = system: ivyleaf morningglory (Ipomoea hederacea, IPOHE); experiment: as above; settings: 14 days after application, rating scale 0-100
How it was run: as §2

[25] = system: field corn (Zea mays L., var. Dekalb 535, CORN); experiment: Pre-emerge greenhouse test, crop damage rating; settings: 14 days after application, rating scale 0-100
How it was run: as §2

[26] = system: upland rice (Oryza sp., var.Tebonnet, RICE); experiment: Pre-emerge greenhouse test, crop damage rating; settings: 14 days after application, rating scale 0-100
How it was run: as §2

**Q.** For Cc1nn(-c2cc(Oc3ncccn3)c(Cl)cc2F)c(=O)n1C(F)F [Compound 3-1, 1-[4-chloro-2-fluoro-5-(2-pyrimidyloxy)phenyl]-4-difluoromethyl-3-methyl-1,4-dihydro-1,2,4-triazolin-5-one], which “CORN crop damage rating (0-100)” value ([1]; 63 g al/ha) is on record?
**A.** 25

**Q.** And the “CORN crop damage rating (0-100)” value ([1]; 500 g al/ha)?
**A.** 100

**Q.** And the “RICE crop damage rating (0-100)” value ([2]; 63 g al/ha)?
**A.** 70

**Q.** And the “RICE crop damage rating (0-100)” value ([2]; 500 g al/ha)?
**A.** 100

**Q.** And the “SOY crop damage rating (0-100)” value ([3]; 63 g al/ha)?
**A.** 100

**Q.** What about the “SOY crop damage rating (0-100)” value ([3]; 500 g al/ha) of the same compound?
**A.** 100

**Q.** And the “SETVI phytotoxicity rating (0-100)” value ([4]; 63 g al/ha)?
**A.** 95

**Q.** And the “SETVI phytotoxicity rating (0-100)” value ([4]; 500 g al/ha)?
**A.** 100

**Q.** What about the “SORHA phytotoxicity rating (0-100)” value ([5]; 63 g al/ha) of the same compound?
**A.** 80

**Q.** What about the “SORHA phytotoxicity rating (0-100)” value ([5]; 500 g al/ha) of the same compound?
**A.** 100

**Q.** And the “DIGSA phytotoxicity rating (0-100)” value ([6]; 63 g al/ha)?
**A.** 80

**Q.** What about the “DIGSA phytotoxicity rating (0-100)” value ([6]; 500 g al/ha) of the same compound?
**A.** 100

**Q.** And the “CASOB phytotoxicity rating (0-100)” value ([7]; 63 g al/ha)?
**A.** 90

**Q.** And the “CASOB phytotoxicity rating (0-100)” value ([7]; 500 g al/ha)?
**A.** 100

**Q.** And the “AMARE phytotoxicity rating (0-100)” value ([8]; 63 g al/ha)?
**A.** 95

**Q.** And the “AMARE phytotoxicity rating (0-100)” value ([8]; 500 g al/ha)?
**A.** 100

**Q.** What about the “ECHCG phytotoxicity rating (0-100)” value ([9]; 63 g al/ha) of the same compound?
**A.** 70

**Q.** And the “ECHCG phytotoxicity rating (0-100)” value ([9]; 500 g al/ha)?
**A.** 100

**Q.** And the “CHEAL phytotoxicity rating (0-100)” value ([10]; 63 g al/ha)?
**A.** 95

**Q.** What about the “CHEAL phytotoxicity rating (0-100)” value ([10]; 500 g al/ha) of the same compound?
**A.** 100

**Q.** What about the “ABUTH phytotoxicity rating (0-100)” value ([11]; 63 g al/ha) of the same compound?
**A.** 100

**Q.** What about the “ABUTH phytotoxicity rating (0-100)” value ([11]; 500 g al/ha) of the same compound?
**A.** 100

**Q.** And the “IPOHE phytotoxicity rating (0-100)” value ([12]; 63 g al/ha)?
**A.** 100

**Q.** What about the “IPOHE phytotoxicity rating (0-100)” value ([12]; 500 g al/ha) of the same compound?
**A.** 100

**Q.** And the “crop damage rating SOY” value ([13]; 125 g ai/ha)?
**A.** 90

**Q.** And the “crop damage rating SOY” value ([13]; 500 g ai/ha)?
**A.** 100

**Q.** And the “AMBEL phytotoxicity rating (0-100)” value ([14]; 63 g al/ha)?
**A.** 70

**Q.** And the “AMBEL phytotoxicity rating (0-100)” value ([14]; 500 g al/ha)?
**A.** 100

**Q.** What about the “phytotoxicity rating AMBEL” value ([15]; 125 g ai/ha) of the same compound?
**A.** 100

**Q.** What about the “phytotoxicity rating AMBEL” value ([15]; 500 g ai/ha) of the same compound?
**A.** 100

**Q.** What about the “phytotoxicity rating SETVI” value ([16]; 125 g ai/ha) of the same compound?
**A.** 100

**Q.** And the “phytotoxicity rating SETVI” value ([16]; 500 g ai/ha)?
**A.** 100

**Q.** And the “phytotoxicity rating SORHA” value ([17]; 125 g ai/ha)?
**A.** 100

**Q.** And the “phytotoxicity rating SORHA” value ([17]; 500 g ai/ha)?
**A.** 100

**Q.** What about the “phytotoxicity rating DIGSA” value ([18]; 125 g ai/ha) of the same compound?
**A.** 100

**Q.** And the “phytotoxicity rating DIGSA” value ([18]; 500 g ai/ha)?
**A.** 100

**Q.** And the “phytotoxicity rating CASOB” value ([19]; 125 g ai/ha)?
**A.** 100

**Q.** And the “phytotoxicity rating CASOB” value ([19]; 500 g ai/ha)?
**A.** 100

**Q.** What about the “phytotoxicity rating AMARE” value ([20]; 125 g ai/ha) of the same compound?
**A.** 100

**Q.** And the “phytotoxicity rating AMARE” value ([20]; 500 g ai/ha)?
**A.** 100

**Q.** And the “phytotoxicity rating ECHCG” value ([21]; 125 g ai/ha)?
**A.** 100

**Q.** What about the “phytotoxicity rating ECHCG” value ([21]; 500 g ai/ha) of the same compound?
**A.** 100

**Q.** And the “phytotoxicity rating CHEAL” value ([22]; 125 g ai/ha)?
**A.** 100

**Q.** What about the “phytotoxicity rating CHEAL” value ([22]; 500 g ai/ha) of the same compound?
**A.** 100

**Q.** And the “phytotoxicity rating ABUTH” value ([23]; 125 g ai/ha)?
**A.** 100

**Q.** And the “phytotoxicity rating ABUTH” value ([23]; 500 g ai/ha)?
**A.** 100

**Q.** And the “phytotoxicity rating IPOHE” value ([24]; 125 g ai/ha)?
**A.** 100

**Q.** What about the “phytotoxicity rating IPOHE” value ([24]; 500 g ai/ha) of the same compound?
**A.** 100

**Q.** What about the “crop damage rating CORN” value ([25]; 125 g ai/ha) of the same compound?
**A.** 90

**Q.** And the “crop damage rating CORN” value ([25]; 500 g ai/ha)?
**A.** 100

**Q.** And the “crop damage rating RICE” value ([26]; 125 g ai/ha)?
**A.** 99

**Q.** What about the “crop damage rating RICE” value ([26]; 500 g ai/ha) of the same compound?
**A.** 100
